According to patent US6204282A, “Benzimidazole compounds that are vitronectin receptor antagonists” (Schering Corporation, priority 1999, dated 2001):

Tests used:
αvβ3 receptor = molecular target: T1, αvβ3 receptor (Homo sapiens, UniProt P05106+P06756); assay: competition radioligand binding assay, 125I-echistatin to purified αvβ3 receptor; settings: inhibition of specific binding of 125I-echistatin (0.05 nM), 3 hour incubation at room temperature
T1 construct: αvβ3 receptor (purified from human placenta); from tissue; host or cells: human placenta

αllbβ3 receptor = αllbβ3 receptor (Homo sapiens, UniProt P05106+P08514); assay: similar competitive assay with purified αllbβ3 receptor and 125I-echistatin (specificity index versus αvβ3); assay type: binding; settings: IC50 αllbβ3 / IC50 αvβ3
From the text: The specificity index, which is a measure of the relative binding affinity for αvβ3 versus αllbβ3, may be determined by dividing the IC50 value for αllbβ3by the IC50 value for αvβ3.

Compound	IC50 (αvβ3 receptor)	SPECIFICITY αIIb β3/αvβ3 (specificity index) (αllbβ3 receptor)
O=C(N[C@@H](CNC(=O)c1ccc(CN(Cc2nc3ccccc3[nH]2)C(=O)C(F)(F)F)cc1)C(=O)O)OCc1ccccc1 [Example 5-12]	5.6 nM	87
CC(=O)N(Cc1cccc(C(=O)NC[C@H](NC(=O)OCc2ccccc2)C(=O)O)c1)Cc1nc2ccccc2[nH]1 [Example 5-8]	~500 nM	–
CC(C)NC(=O)N(Cc1ccc(C(=O)NC[C@H](NC(=O)OCc2ccccc2)C(=O)O)cc1)Cc1nc2ccccc2[nH]1 [Example 5-30]	2.3 nM	296
O=C(N[C@@H](CNC(=O)c1cccc(CNCc2nc3ccccc3[nH]2)c1)C(=O)O)OCc1ccccc1 [Example 5-6]	~500 nM	–

Further lines, results first:

IC50 (αvβ3 receptor)	SPECIFICITY αIIb β3/αvβ3 (specificity index) (αllbβ3 receptor)	Compound
3.4 nM	70	CCCC(=O)N(Cc1ccc(C(=O)NC[C@H](NC(=O)OCc2ccccc2)C(=O)O)cc1)Cc1nc2ccccc2[nH]1 [Example 5-11]
2.8 nM	19	CN(C)C(=O)N(Cc1ccc(C(=O)NC[C@H](NC(=O)OCc2ccccc2)C(=O)O)cc1)Cc1nc2ccccc2[nH]1 [Example 5-41]
2.9 nM	–	O=C(N[C@@H](CNC(=O)c1ccc(CN(Cc2nc3ccccc3[nH]2)C(=O)c2ccc3c(c2)OCO3)cc1)C(=O)O)OCc1ccccc1 [Example 5-4]
0.42 nM	–	COCC(=O)N(Cc1ccc(C(=O)NC[C@H](NC(=O)OCc2ccccc2)C(=O)O)cc1)Cc1nc2ccccc2[nH]1 [Example 5-5]
